According to paper PMC12860872, “Preclinical evaluation of DOTAGA.Glu.(FAPI)2 and DO3A.Glu.(FAPI)2 as theranostics with human dosimetry extrapolation to lutetium-177 and terbium-161 analogs” (European Journal of Nuclear Medicine and Molecular Imaging, 2025):
Where “and” joins values, the source holds several entries; their conditions need not be identical. Identical values can stand only once.

Assays:
PC3-mice = assay: Biodistribution in PC3-mice incl. blocking; type: in vivo, mouse; details: PC3-mice
Procedure: Male athymic Balb/C nude mice (6 weeks/20–25 g) were implanted with PC3 cells (3.5 × 10^6/100 µL PBS) into their right shoulder to develop tumors. The animals were used for biodistribution and PET/SPECT/CT imaging studies, once tumors reached 250–300 mm^3.
All mice were euthanized with intraperitoneal injection of pentobarbital (150 mg/kg), and selected organs were dissected, weighed, and measured for radioactivity using a gamma-counter. Results are expressed as % injected activity per gram tissue (% I.A./g), presented as mean ± SD (n = 3–4).

FAP = target: T1, FAP (Homo sapiens, UniProt Q12884); assay: Saturation binding on FAP+ CAFs; details: listed as 68/natGa-DO3A.Glu.(FAPI)2
T1 construct: the CAF cells overexpressing FAP were seeded at a density of 0.8-1 million cells per well; host or cells: hTERT PF179T prostate cancer-associated fibroblasts
T1 sequence (Q12884 1-760): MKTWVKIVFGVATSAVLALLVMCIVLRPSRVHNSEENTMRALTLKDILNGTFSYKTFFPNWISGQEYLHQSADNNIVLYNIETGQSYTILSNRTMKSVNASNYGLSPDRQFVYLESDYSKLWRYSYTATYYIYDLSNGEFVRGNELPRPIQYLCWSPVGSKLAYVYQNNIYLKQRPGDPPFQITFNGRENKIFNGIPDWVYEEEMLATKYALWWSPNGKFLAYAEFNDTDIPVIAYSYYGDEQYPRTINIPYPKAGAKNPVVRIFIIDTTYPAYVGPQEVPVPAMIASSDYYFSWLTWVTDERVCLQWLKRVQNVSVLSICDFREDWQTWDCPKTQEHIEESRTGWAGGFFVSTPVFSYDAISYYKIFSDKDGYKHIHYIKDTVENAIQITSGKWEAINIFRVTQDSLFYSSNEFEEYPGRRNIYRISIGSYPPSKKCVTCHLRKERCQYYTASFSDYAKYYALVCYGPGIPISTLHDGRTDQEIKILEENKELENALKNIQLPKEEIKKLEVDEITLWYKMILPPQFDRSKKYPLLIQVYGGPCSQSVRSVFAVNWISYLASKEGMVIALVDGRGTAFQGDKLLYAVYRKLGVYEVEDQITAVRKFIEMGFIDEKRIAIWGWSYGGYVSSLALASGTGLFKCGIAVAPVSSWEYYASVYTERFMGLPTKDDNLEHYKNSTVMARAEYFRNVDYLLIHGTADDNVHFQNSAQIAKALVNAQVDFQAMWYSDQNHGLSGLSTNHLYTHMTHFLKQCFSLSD
Procedure: For receptor saturation studies, FAP^+ CAFs were incubated with 0.1 to 10 nM of the radioligands. For internalization studies, approximately 2.5 pmol of the radioligands were added to CAFs followed by incubation for 15, 30, 60, 90, 120, 180 and 240 min for the ^68Ga-labeled or 30, 60, 120, 240 and 360 min for the ^177Lu-labeled radioligands at 37 °C, 5% CO2. For the externalization studies, approximately 2.5 pmol of the ^177Lu-labeled radioligands were added to CAFs followed by incubation for 2 h at 37 °C, 5% CO2. The amount of externalized activity was measured at 0, 10, 20, 30, 60, 120, 240, and 1440 min (Supplemental Data).
For receptor saturation analysis, the CAF cells overexpressing FAP were seeded at a density of 0.8-1 million cells per well in 6-well plates, pre-coated with BME (Cultrex Reduced Growth Factor Basement Membrane Extract, RGF BME, R&D System, Minneapolis, USA) to enhance cell attachment. The cells were incubated overnight with medium (EMEM supplemented and containing 10% FBS, 100 U/mL penicillin and 100 μg/mL streptomycin). The next day, the medium was removed and the cells were incubated for 30 minutes at 37 °C, with 0.8 mL of fresh medium. Afterwards, the plates were placed on ice for 30 minutes followed by incubation with increasing concentrations of ^68/natGa- and ^177/natLu-labelled DOTAGA.Glu.(FAPI)2 and DO3A.Glu.( FAPI)2 (0.1-10 nM final concentration in the wells). After the addition of the radioligands, the cells were incubated for 120 minutes at 4 °C. Non-specific binding was determined in the presence of UAMC1110 at a final concentration of 1 μM. After the completion of the incubation, the cells were washed twice with ice-cold PBS, followed by solubilization with 1 M NaOH. The cell-associated radioactivity was measured using a gamma-counter. Specific binding was plotted against the total molar concentration of the added radiotracer. The Kd values and the concentration of the radioligand required to saturate the receptors (Bmax) were determined by nonlinear regression using GraphPad (Prism 8 Graph Pad Software, San Diego, CA). For all the cell studies the values are normalized for 1x10^6 cells per well and all data are from two independent experiments with triplicates in each experiment.

[1] = Blocking 1h (20 nmol unlabeled precursor)

## N#C[C@@H]1CC(F)(F)CN1C(=O)CNC(=O)c1ccnc2ccc(OCCCCNC(=O)CC[C@H](NC(=O)CN3CCN(CC(=O)[O-])CCN(CC(=O)[O-])CCN(CC(=O)[O-])CC3)C(=O)NCCCCOc3ccc4nccc(C(=O)NCC(=O)N5CC(F)(F)C[C@H]5C#N)c4c3)cc12.[68Ga+3] [[^68Ga]Ga-DO3A.Glu.(FAPI)2]
PC3-mice; 1 h p.i.
  Uptake in Adrenal: 3.6±1.1 %I.A./g
  Uptake in Blood: 2±0.1 %I.A./g
  Uptake in Bone: 5±3.1 %I.A./g
  Uptake in Gallbladder: 2.3±1.8 %I.A./g
  Uptake in Heart: 1±0.1 %I.A./g
  Uptake in Intestine: 0.9±0.2 %I.A./g
  Uptake in Kidney: 6.7±1.7 %I.A./g
  Uptake in Liver: 4.2±1.2 %I.A./g
  Uptake in Lung: 3.8±1 %I.A./g
  Uptake in Muscle: 2±0.03 %I.A./g
  Uptake in Pancreas: 1.8±0.1 %I.A./g
  Uptake in Salivary glands: 6.4±0.5 %I.A./g
  Uptake in Spleen: 1.3±0.3 %I.A./g
  Uptake in Stomach: 0.9±0.1 %I.A./g
  Uptake in Tumor: 19±2.4 %I.A./g
PC3-mice; 2 h p.i.
  Uptake in Adrenal: 2.5±0.8 %I.A./g
  Uptake in Blood: 2.2±0.1 %I.A./g
  Uptake in Bone: 6.3±1 %I.A./g
  Uptake in Gallbladder: 3.5±1.8 %I.A./g
  Uptake in Heart: 0.8±0.03 %I.A./g
  Uptake in Intestine: 1±0.2 %I.A./g
  Uptake in Kidney: 4.4±0.8 %I.A./g
  Uptake in Liver: 3.3±0.9 %I.A./g
  Uptake in Lung: 2.5±0.6 %I.A./g
  Uptake in Muscle: 1.3±0.3 %I.A./g
  Uptake in Pancreas: 1.7±0.1 %I.A./g
  Uptake in Salivary glands: 5.2±0.1 %I.A./g
  Uptake in Spleen: 1.6±0.4 %I.A./g
  Uptake in Stomach: 0.9±0.1 %I.A./g
  Uptake in Tumor: 19.6 ± 0.7 %I.A./g
PC3-mice; 3 h p.i.
  Uptake in Adrenal: 2.4±0.8 %I.A./g
  Uptake in Blood: 2.2±0.1 %I.A./g
  Uptake in Bone: 5.8±1 %I.A./g
  Uptake in Gallbladder: 1.7±0.9 %I.A./g
  Uptake in Heart: 0.7±0.1 %I.A./g
  Uptake in Intestine: 0.9±0.2 %I.A./g
  Uptake in Kidney: 3.4±0.4 %I.A./g
  Uptake in Liver: 2.8±0.3 %I.A./g
  Uptake in Lung: 1.7±0.3 %I.A./g
  Uptake in Muscle: 1.1±0.1 %I.A./g
  Uptake in Pancreas: 1.4±0.1 %I.A./g
  Uptake in Salivary glands: 5±1.4 %I.A./g
  Uptake in Spleen: 1.4±0.3 %I.A./g
  Uptake in Stomach: 0.7±0.02 %I.A./g
  Uptake in Tumor: 17.5 ± 1.1 %I.A./g
PC3-mice; [1]
  Uptake in Adrenal: 0.1±0.6 %I.A./g
  Uptake in Blood: 2.3±0.5 %I.A./g
  Uptake in Bone: 0.3±0.1 %I.A./g
  Uptake in Gallbladder: 3.5±0.3 %I.A./g
  Uptake in Heart: 0.7±0.2 %I.A./g
  Uptake in Intestine: 0.8±0.3 %I.A./g
  Uptake in Kidney: 6.2±1.2 %I.A./g
  Uptake in Liver: 3.2±0.7 %I.A./g
  Uptake in Lung: 2.1±0.4 %I.A./g
  Uptake in Muscle: 0.3±0.01 %I.A./g
  Uptake in Pancreas: 0.4±0.1 %I.A./g
  Uptake in Salivary glands: 0.7±0.1 %I.A./g
  Uptake in Spleen: 1±0.1 %I.A./g
  Uptake in Stomach: 0.8±0.3 %I.A./g
  Uptake in Tumor: 1.3±0.2 %I.A./g
PC3-mice; over 3 h
  Blood pool retention: around 2 %I.A./g
PC3-mice; sustained up to 3 h p.i.
  tumor uptake: 18–19 %I.A./g
FAP; 0.1 to 10 nM radioligand
  Kd: 0.9 nM and 0.89 nM
FAP
  Bmax: 0.5 ± 0.05 nM and 0.54 ± 0.05 nM
